Assays:
human SAA1 promoter = assay: SAA1 promoter luciferase reporter construct in HepG2 cells; format: cell-based; conditions: HepG2, pGL2-SAA1pt
Excerpt: The pGL2-SAA1pt construct was generated as follows. The proximal 3.1 kb of genomic sequence upstream of the human SAA1 transcription start site plus the full 37 bases of 5′UTR was amplified by polymerase chain reaction (PCR) from human genomic DNA (Roche Biomolecular) using forward and reverse primers, HSAA1PF (5′-GAATTCACGCGTTT-[…]-3′) (SEQ ID NO:10) and HSAAPR (5′-[…]-GCTGAGCTGCGGG-3′) (SEQ ID NO:11), that incorporate Mlu1 and Nco1 restriction sites, respectively. The product was digested with Mlu1 and Nco1 and directionally cloned into a pGL2 vector which had been modified to include an Nco1 site at the start of the luciferase coding sequence and contains the human SAA2 3′UTR (Longley et al. (1999) J. Immunol. 163:4537-45).
Constructs pGL2-SAA1[0.7] and pGL2-SAA1[0.25] containing 704 and 233 bases of promoter sequence respectively, were generated from pGL2-SAA1pt by PCR using the forward primers 5′-[…]-CAGCCTTGACC-3′ (SEQ ID NO:12) and 5′-GAATTCACGCGTGGTCT-CCTGCCTG-3′ (SEQ ID NO:13) respectively, and the reverse primer HSAAPR.
Human HepG2 hepatoma cells (ATCC) were cultured in DMEM containing 10% FCS, gentamycin, sodium pyruvate and non-essential amino acids (Gibco BRL). Cells were seeded into 24 well plates 24 hours prior to transfection using FuGENE (Roche Biomolecular) as described in Jensen et al. (2000) J. Immunol. 164:5277-86. Cells transfected with SAA promoter luciferase reporter constructs and renilla control plasmid, were incubated for 16 to 20 hours before replacement of culture medium with fresh medium alone or fresh medium containing 10 ng/ml cytokines and/or dexamethasone and/or RU486 (Mifepristone). IL-1 was purchased from Peprotech. IL-6 was obtained from AstraZeneca. Dexamethasone and RU486 were obtained from Sigma.
(§1) Cells were harvested at various times post-treatment, washed in PBS and resuspended in Passive Lysis Buffer (Promega, Madison, Wis.). […] Each treatment was carried out in triplicate and the mean ratio of luciferase to renilla activity and standard deviations were calculated. […]

human SAA2 promoter = assay: SAA2 promoter luciferase reporter construct in HepG2 cells; format: cell-based; conditions: HepG2, pGL2-SAA2pt, cytokines 10 ng/ml
Excerpt: The pGL2-SAA2pt construct, which contains 1.2 kb of the human SAA2 promoter upstream of a luciferase reporter was generated as follows. A 1196 bp of the promoter region and 22 bp of the first exon of the human acute phase SAA2 gene was amplified by PCR with the introduction of MluI and XhoI restriction sites at the 5′ and 3′ ends respectively (5′ oligonucleotide: 5′ […]-TACTTCCT-′3′ (SEQ ID NO: 8); 3′ oligonucleotide: 5′-[…]-[…]-3′ (SEQ ID NO:9). The PCR product was subsequently cloned into the multiple-cloning site of the pGL2-Basic vector (Promega, Madison, Wis., USA) which is located upstream of a luciferase reporter gene.
Constructs pGL2-SAA2[0.7] and pGL2-SAA2[0.25] containing 700 and 239 bases of promoter sequence respectively, were generated from pGL2-SAA2pt by PCR using the forward primers 5′-[…]-3′ (SEQ ID NO:14) and 5′-[…]-3′ (SEQ ID NO:15) respectively, and the reverse primer HSAAPR.
Human HepG2 hepatoma cells (ATCC) were cultured in DMEM containing 10% FCS, gentamycin, sodium pyruvate and non-essential amino acids (Gibco BRL). […]
as §1

For `CC#C[C@]1(O)CC[C@H]2[C@@H]3CCC4=CC(=O)CCC4=C3[C@@H](c3ccc(N(C)C)cc3)C[C@@]21C` [RU486, Mifepristone], the “effect on cytokine driven SAA1 promoter transcriptional activity” value (human SAA1 promoter; 10 nM RU486 alone with IL-1 plus IL-6, 4 h) was “no measurable effect” and the “block of dexamethasone enhancement of cytokine induction of the SAA1 promoter” value (human SAA1 promoter; 10 nM RU486 with 100 nM dexamethasone and IL-1 plus IL-6, 4 h) was “completely blocked”.

For “IL-6: cytokine, obtained from AstraZeneca”, the “kinetic profile of cytokine driven SAA2 promoter readout” value (human SAA2 promoter; 3, 6, 9, 24 h) was “highest at 3 hours and decreased through 24 hours” and the “induction of the SAA2 promoter” value (human SAA2 promoter; 3-24 h) was “moderately induced”.

With `C[C@@H]1C[C@H]2[C@@H]3CCC4=CC(=O)C=C[C@]4(C)[C@@]3(F)[C@@H](O)C[C@]2(C)[C@@]1(O)C(=O)CO` [dexamethasone] the “effect on the SAA1 promoter” value (human SAA1 promoter; dexamethasone alone (50 nM), 3, 6, 9, 24 h) was “no effect”.

From patent US7666608B2, “Methods for determining drug responsiveness” (The Trustees of the University of Pennsylvania, priority 2002, dated 2010)
